Non-standard residues stand in square brackets, D forms with d.
Experiments:
Format in all cases: in vivo, female C57BL/6 mice
[1] = tested on: mouse model of scopolamine-induced dry eye; experiment: Tear break-up time (TBUT) test in scopolamine-induced dry eye mice; conditions: for Mean Calculated TBUT AUC: TID, OU, 5 μL/eye, Days 1 to 21
Description: The study consisted of a total of 5 groups of female C57BL/6 mice, comprising 4 groups of 12 mice each and an additional group of 4 mice. Bilateral short-term dry eye was induced by a combination of scopolamine hydrobromide (Sigma-Aldrich Corp., St. Louis, Mo.) injection (subcutaneous (SC), four times daily, 0.5 mg/dose, Days 0-21) and by exposing mice to the drying environment of constant air draft. Starting on Day 1, mice of Groups 1-4 were treated three times daily (TID) for 21 days with bilateral topical ocular (oculus uterque; OU) administration (5 μL/eye/dose) of vehicle (0.9% sterile saline; negative control article); or the peptide of SEQ ID NO: 11 (0.06%, 0.25% and 0.6%). Mice of Group 5 were maintained as un-induced, (no dry eye) untreated controls. During the in-life (treatment) period, clinical observations were recorded once daily; slit-lamp examination (SLE) with corneal fluorescein staining, tear break-up time test (TBUT), and phenol red thread test (PRTT) were performed three times per week. Necropsies were performed on Day 22; eyes, eye lids, conjunctivae, and lacrimal glands were collected from both eyes of each animal. Tissues from the right eyes (oculus dexter, OD) were fixed and then evaluated microscopically. Tissues from the left eyes (oculus sinister; OS) were flash-frozen in liquid nitrogen and stored frozen at −80° C. for possible subsequent analyses. The TBUT test was conducted three times weekly by measuring the time elapsed in seconds between a complete blink after application of fluorescein to the cornea and the appearance of the first random dry spot in the tear film. […] At least ninety seconds later, corneal epithelial damage was graded using a slit-lamp with a cobalt blue filter after another drop of 0.1% fluorescein was reapplied to the cornea; the cornea then was scored per the Draize ocular scale.

[2] = tested on: mouse model of scopolamine-induced dry eye; experiment: Phenol red thread tear test (PRTT) in scopolamine-induced dry eye mice; conditions: for Mean PRTT AUC: TID, OU, 5 μL/eye, AUC Day 7-21
Description: The study consisted of a total of 5 groups of female C57BL/6 mice, comprising 4 groups of 12 mice each and an additional group of 4 mice. Bilateral short-term dry eye was induced by a combination of scopolamine hydrobromide (Sigma-Aldrich Corp., St. Louis, Mo.) injection (subcutaneous (SC), four times daily, 0.5 mg/dose, Days 0-21) and by exposing mice to the drying environment of constant air draft. Starting on Day 1, mice of Groups 1-4 were treated three times daily (TID) for 21 days with bilateral topical ocular (oculus uterque; OU) administration (5 μL/eye/dose) of vehicle (0.9% sterile saline; negative control article); or the peptide of SEQ ID NO: 11 (0.06%, 0.25% and 0.6%). Mice of Group 5 were maintained as un-induced, (no dry eye) untreated controls. During the in-life (treatment) period, clinical observations were recorded once daily; slit-lamp examination (SLE) with corneal fluorescein staining, tear break-up time test (TBUT), and phenol red thread test (PRTT) were performed three times per week. Necropsies were performed on Day 22; eyes, eye lids, conjunctivae, and lacrimal glands were collected from both eyes of each animal. Tissues from the right eyes (oculus dexter, OD) were fixed and then evaluated microscopically. Tissues from the left eyes (oculus sinister; OS) were flash-frozen in liquid nitrogen and stored frozen at −80° C. for possible subsequent analyses. Tear production was measured three times a week in both eyes using PRTT test strips (Zone-Quick; Menicon, Nagoya, Japan). Prior to the first treatment of the day, a thread was applied to the lateral canthus of the conjunctival fornix of each eye for 30 seconds under slit-lamp biomicroscopy. Tear migration up the tread (i.e., the length of the wetted cotton thread) was measured using a millimeter scale.

[3] = tested on: mouse model of scopolamine-induced dry eye; experiment: Histopathology of the right eye (cornea) at necropsy Day 22 in scopolamine-induced dry eye mice
Description: The study consisted of a total of 5 groups of female C57BL/6 mice, comprising 4 groups of 12 mice each and an additional group of 4 mice. Bilateral short-term dry eye was induced by a combination of scopolamine hydrobromide (Sigma-Aldrich Corp., St. Louis, Mo.) injection (subcutaneous (SC), four times daily, 0.5 mg/dose, Days 0-21) and by exposing mice to the drying environment of constant air draft. Starting on Day 1, mice of Groups 1-4 were treated three times daily (TID) for 21 days with bilateral topical ocular (oculus uterque; OU) administration (5 μL/eye/dose) of vehicle (0.9% sterile saline; negative control article); or the peptide of SEQ ID NO: 11 (0.06%, 0.25% and 0.6%). […] During the in-life (treatment) period, clinical observations were recorded once daily; slit-lamp examination (SLE) with corneal fluorescein staining, tear break-up time test (TBUT), and phenol red thread test (PRTT) were performed three times per week. […] Tissues from the right eyes (oculus dexter, OD) were fixed and then evaluated microscopically. […] Stained slides were evaluated via light microscopy. […] These tissues were scored for injury based upon a 0-4 scale, with 0 being normal, 1 being minimal, 2 being mild, 3 being moderate, and 4 being severe. […] Conjunctivae were scored for erosion and inflammation as well as presence or absence of goblet cells.

NH2-DQSRPVQPFLNLTTPRKPRPPRRRQRRKKRG-COOH (H-[dD][dQ][dS][dR][dP][dV][dQ][dP][dF][dL][dN][dL][dT][dT][dP][dR][dK][dP][dR][dP][dP][dR][dR][dR][dQ][dR][dR][dK][dK][dR]G-OH) [SEQ ID NO: 11]
Mean Calculated TBUT AUC ([1]; Group 2: 0.06% (low dose)): 88.54
Mean Calculated TBUT AUC ([1]; Group 3: 0.25% (mid dose)): 91.19
Mean Calculated TBUT AUC ([1]; Group 4: 0.6% (high dose)): 89.98
TBUT means compared with vehicle group ([1]; low, medium and high dose (Groups 2, 3 and 4)): above the vehicle group
Dose dependence of TBUT ([1]; low, mid and high dose levels (Groups 2-4)): generally dose-dependent increases in TBUT
Dose dependence of PRTT ([2]; 0.06%, 0.25% and 0.6% (Groups 2, 3 and 4)): generally dose-dependent increases in PRTT
Mean PRTT AUC ([2]; Group 2: 0.06% (low dose)): 39.96
Mean PRTT AUC ([2]; Group 3: 0.25% (mid dose)): 42.79
Mean PRTT AUC ([2]; Group 4: 0.6% (high dose)): 43.17
Corneal changes (histopathology) in comparison to the other treatment groups ([3]; Group 2, low dose (0.06%)): slightly more severe
Reducing/ameliorating the corneal changes (histopathology) ([3]; high dose (0.6%)): most effective

— patent US20140309400A1, “Use of Cell-Permeable Peptide Inhibitors of the JNK Signal Transduction Pathway for the Treatment of Dry Eye Syndrome” (Xigen Inflammation Ltd., priority 2011, published 2014)
